Data reported in PMC10497752, “Heparins are potent inhibitors of ectonucleotide pyrophosphatase/phospho-diesterase-1 (NPP1) – a promising target for the immunotherapy of cancer” (Frontiers in Immunology, 2023).
Where two headings read alike, the source gives them in different places.

Columns and labels:
Type in all cases: biochemical
[1] = target: T1, human NPP5 (Homo sapiens, UniProt Q9UJA9); experiment: NPP5 colorimetric assay, p-Nph-5'-TMP as substrate; conditions: 20 µg/mL (12 µM)
T1 sequence (Q9UJA9 25-477): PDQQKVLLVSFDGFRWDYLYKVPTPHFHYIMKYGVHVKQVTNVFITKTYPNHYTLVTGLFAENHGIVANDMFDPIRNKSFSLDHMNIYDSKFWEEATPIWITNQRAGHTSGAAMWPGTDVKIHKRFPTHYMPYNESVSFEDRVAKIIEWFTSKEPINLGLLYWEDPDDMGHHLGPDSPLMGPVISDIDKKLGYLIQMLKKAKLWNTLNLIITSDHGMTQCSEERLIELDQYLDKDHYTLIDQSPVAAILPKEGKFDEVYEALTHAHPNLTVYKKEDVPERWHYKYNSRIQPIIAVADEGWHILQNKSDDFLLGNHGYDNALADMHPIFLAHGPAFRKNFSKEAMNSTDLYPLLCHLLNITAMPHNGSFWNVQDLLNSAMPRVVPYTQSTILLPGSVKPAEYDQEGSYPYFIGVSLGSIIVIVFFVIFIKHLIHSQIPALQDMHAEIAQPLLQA
Method: Compounds 1, 2, 5, 6, and 7 were screened at different concentrations using 400 μM of p-nitrophenyl thymidine monophosphate (p-Nph-5´-TMP) as substrate to study potential inhibition of NPP3 and NPP5 using a colorimetric assay as previously described ([21]). Soluble and purified human NPP3, prepared as previously described ([22]), and human NPP5 ([23]) were diluted in the assay buffer (50 mM TRIS HCl, 2 mM CaCl2, and 0.2 mM ZnCl2, pH 9.00), and 0.09 µg of NPP3, or 0.4 µg of NPP5 were employed. The mixtures were incubated for 30 min at 37°C in case of NPP3, and for 100 min at 37°C in case of NPP5, and the reactions were subsequently terminated by adding 20 μL of 1.0 N aq. NaOH solution. The assay is based on the enzymatic ester hydrolysis of p-Nph-5’-TMP which results in the formation of the yellow p-nitrophenolate anion. The absorption was measured at 400 nm using a BMG PheraStar FS plate reader (BMG Labtech GmbH, Ortenberg, Germany). Each analysis was repeated three times with triplicate measurements.

[2] = target: T2, human NPP1 (Homo sapiens, UniProt P22413); experiment: NPP1 assay, capillary electrophoresis (CE)-based, ATP as substrate; conditions: for IC50: human NPP1, 400 µM ATP, CE assay
T2 construct: human recombinant soluble NPP1 (Val191 - Leu591) expressed in murine myeloma NS0 cells; His-tag (N); purchased R&D Systems GmbH (Wiesbaden, Germany); host or cells: murine myeloma NS0 cells
T2 sequence (P22413 191-591): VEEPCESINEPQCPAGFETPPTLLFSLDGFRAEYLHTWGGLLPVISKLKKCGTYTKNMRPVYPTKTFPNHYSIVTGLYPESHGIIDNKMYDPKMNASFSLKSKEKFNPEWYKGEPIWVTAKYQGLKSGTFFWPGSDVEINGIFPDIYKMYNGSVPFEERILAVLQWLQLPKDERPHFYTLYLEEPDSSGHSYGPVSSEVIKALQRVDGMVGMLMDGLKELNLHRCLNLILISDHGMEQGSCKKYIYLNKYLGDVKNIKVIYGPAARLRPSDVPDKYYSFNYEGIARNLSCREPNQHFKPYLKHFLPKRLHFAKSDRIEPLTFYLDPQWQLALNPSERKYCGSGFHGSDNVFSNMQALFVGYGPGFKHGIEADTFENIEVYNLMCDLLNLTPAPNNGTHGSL
Method: (§1) Concentration-inhibition curves of the test compounds at human NPP1 were performed with ATP as substrate at a final concentration of 400 μM. Several different dilutions of the test compounds were prepared in assay buffer (10 mM N-cyclohexyl-2-aminoethanesulfonic acid (CHES), 2 mM CaCl2, 1 mM MgCl2, pH 9.00) and incubated with 20 ng of human recombinant soluble NPP1 (Val191 - Leu591) expressed in murine myeloma NS0 cells obtained from R&D Systems GmbH (Wiesbaden, Germany, purity 95%, purified by using an N-terminal His-tag). For initial screening and selectivity analysis, NPP1 prepared as previously described ([20]), diluted in assay buffer, was used. The mixture of enzyme, substrate and test compound or buffer without test compound was incubated for 30 min at 37°C, and the reaction was terminated by heating at 90°C for 5 min. Capillary electrophoresis (CE) analysis was carried out to analyze the formation of the product. Data collection and peak area analysis were performed by the P/ACE MDQ software 32 KARAT obtained from Beckman Coulter (Fullerton, CA, USA). A polyacrylamide-coated capillary was used [30 cm (20 cm effective length) × 50 μm (id) × 360 μm (od) purchased from Chromatographie Service GmbH (Langerwehe, Germany)]. Samples were injected electro-kinetically by applying a voltage of -6 kV for 30 s. Finally, analytes were separated by applying a separation voltage of -20 kV, and detected by UV at 260 nm. The IC50 values were determined by nonlinear curve fitting using the GraphPad Prism Software 7.0. The mechanism of inhibition at human NPP1 was determined employing different concentrations of the investigated compounds 6 (at 0, 0.4, 4.0 µM), and 7 (at 0, 0.4 and 40 µM) versus four different substrate concentrations ranging from 50 to 500 μM of ATP. The assay procedure and operation conditions were the same as described above. The experiment was conducted twice, each in triplicates. A Lineweaver-Burk was calculated using GraphPad Prism 7.0 for predicting the inhibition type of the compound.

[3] = system: human NPP1; experiment: as above
Method: as §1

- NPP5 inhibition, selectivity study [1]: no effect
- inhibition type at human NPP1 ([2]; Lineweaver-Burk plots, ATP 50-500 µM): mixed-type
- IC50 ([2]; read-out: IC50 ± SD (µg/ml) (converted)): 3.31 µM
- IC50 ([2]; values of 1 and 2 estimated (1 IU = 0.002 mg; mean 16.5 kDa for heparin-sodium), read-out: IC50 ± SD): 2.94 ± 0.61 µM
SMILES: CO[C@H]1O[C@H](COS(=O)(=O)O)[C@@H](O[C@@H]2O[C@@H](C(=O)O)[C@@H](O[C@H]3O[C@H](COS(=O)(=O)O)[C@@H](O[C@@H]4O[C@H](C(=O)O)[C@@H](O[C@H]5O[C@H](COS(=O)(=O)O)[C@@H](O)[C@H](O)[C@H]5NS(=O)(=O)O)[C@H](O)[C@H]4O)[C@H](OS(=O)(=O)O)[C@H]3NS(=O)(=O)O)[C@H](O)[C@H]2OS(=O)(=O)O)[C@H](O)[C@H]1NS(=O)(=O)O [Compound 6, Fondaparinux]
- NPP1 inhibition, selectivity study ([3]; 20 µg/mL (12 µM)): full inhibition
- inhibition of human NPP1, initial screening ([3]; 50 µg/mL (30 µM)): almost complete inhibition
